Reference: US20190185499A1, “Novel Compounds” (Colgate-Palmolive Company, priority 2017, published 2019)

Assay: Lack of precipitate formation in aqueous solution
Assay type: physicochemical
Details: ~5% concentration solution in water; after three months following its preparation
Experimental: 3.220 g of sodium ascorbyl phosphate is dissolved into 100 mL water and then 1.567 g of SnF2 is added. The mixture is stirred into completely solubilized and heat at 60 C for one hour. The solution is directly analyzed by 13C-NMR and diluted into 5000 ppm and analyzed by LC-MS.
In one aspect, a solution of ˜5% concentration of stannous ascorbyl phosphate is prepared as described in the above examples.

- formation of an observable precipitate: will not form an observable precipitate
Substance: stannous ascorbyl phosphate
